Test results as given in US8642609B2, “Modulators of ATP-binding cassette transporters” (Vertex Pharmaceuticals Incorporated, priority 2003, dated 2014).

Molecular target: T1, ΔF508-CFTR (Homo sapiens, UniProt P13569, DEL508-508)
T1 construct: expressed in transfected cells
Experiment: Membrane potential optical assay (FRET/VIPR), identification of correction compounds
Format: cell-based
Settings: for Emax: relative efficacy
Description: I) Membrane Potential Optical Methods for Assaying ΔF508-CFTR Modulation Properties of Compounds
The optical membrane potential assay utilized voltage-sensitive FRET sensors described by Gonzalez and Tsien (See, Gonzalez, J. E. and R. Y. Tsien (1995) “Voltage sensing by fluorescence resonance energy transfer in single cells” Biophys J 69(4): 1272-80, and Gonzalez, J. E. and R. Y. Tsien (1997) “Improved indicators of cell membrane potential that use fluorescence resonance energy transfer” Chem Biol 4(4): 269-77) in combination with instrumentation for measuring fluorescence changes such as the Voltage/Ion Probe Reader (VIPR) (See, Gonzalez, J. E., K. Oades, et al. (1999) “Cell-based assays and instrumentation for screening ion-channel targets” Drug Discov Today 4(9): 431-439).
These voltage sensitive assays are based on the change in fluorescence resonant energy transfer (FRET) between the membrane-soluble, voltage-sensitive dye, DiSBAC2(3), and a fluorescent phospholipid, CC2-DMPE, which is attached to the outer leaflet of the plasma membrane and acts as a FRET donor. Changes in membrane potential (Vm) cause the negatively charged DiSBAC2(3) to redistribute across the plasma membrane and the amount of energy transfer from CC2-DMPE changes accordingly. The changes in fluorescence emission were monitored using VIPR™ II, which is an integrated liquid handler and fluorescent detector designed to conduct cell-based screens in 96- or 384-well microtiter plates.
Identification of Correction Compounds
To identify small molecules that correct the trafficking defect associated with ΔF508-CFTR; a single-addition HTS assay format was developed. The cells were incubated in serum-free medium for 16 hrs at 37° C. in the presence or absence (negative control) of test compound. As a positive control, cells plated in 384-well plates were incubated for 16 hrs at 27° C. to “temperature-correct” ΔF508-CFTR. The cells were subsequently rinsed 3× with Krebs Ringers solution and loaded with the voltage-sensitive dyes. To activate ΔF508-CFTR, 10 μM forskolin and the CFTR potentiator, genistein (20 μM), were added along with Cl^−-free medium to each well. The addition of Cl^−-free medium promoted Cl^− efflux in response to ΔF508-CFTR activation and the resulting membrane depolarization was optically monitored using the FRET-based voltage-sensor dyes.
NIH3T3 mouse fibroblasts stably expressing ΔF508-CFTR are used for optical measurements of membrane potential. The cells are maintained at 37° C. in 5% CO2 and 90% humidity in Dulbecco's modified Eagle's medium supplemented with 2 mM glutamine, 10% fetal bovine serum, 1×NEAA, β-ME, 1× pen/strep, and 25 mM HEPES in 175 cm^2 culture flasks. For all optical assays, the cells were seeded at 30,000/well in 384-well matrigel-coated plates and cultured for 2 hrs at 37° C. before culturing at 27° C. for 24 hrs. for the potentiator assay. For the correction assays, the cells are cultured at 27° C. or 37° C. with and without compounds for 16-24 hours B) Electrophysiological Assays for assaying ΔF508-CFTR modulation properties of compounds

T1 sequence (P13569 with tags, fused parts or gaps DEL508-508): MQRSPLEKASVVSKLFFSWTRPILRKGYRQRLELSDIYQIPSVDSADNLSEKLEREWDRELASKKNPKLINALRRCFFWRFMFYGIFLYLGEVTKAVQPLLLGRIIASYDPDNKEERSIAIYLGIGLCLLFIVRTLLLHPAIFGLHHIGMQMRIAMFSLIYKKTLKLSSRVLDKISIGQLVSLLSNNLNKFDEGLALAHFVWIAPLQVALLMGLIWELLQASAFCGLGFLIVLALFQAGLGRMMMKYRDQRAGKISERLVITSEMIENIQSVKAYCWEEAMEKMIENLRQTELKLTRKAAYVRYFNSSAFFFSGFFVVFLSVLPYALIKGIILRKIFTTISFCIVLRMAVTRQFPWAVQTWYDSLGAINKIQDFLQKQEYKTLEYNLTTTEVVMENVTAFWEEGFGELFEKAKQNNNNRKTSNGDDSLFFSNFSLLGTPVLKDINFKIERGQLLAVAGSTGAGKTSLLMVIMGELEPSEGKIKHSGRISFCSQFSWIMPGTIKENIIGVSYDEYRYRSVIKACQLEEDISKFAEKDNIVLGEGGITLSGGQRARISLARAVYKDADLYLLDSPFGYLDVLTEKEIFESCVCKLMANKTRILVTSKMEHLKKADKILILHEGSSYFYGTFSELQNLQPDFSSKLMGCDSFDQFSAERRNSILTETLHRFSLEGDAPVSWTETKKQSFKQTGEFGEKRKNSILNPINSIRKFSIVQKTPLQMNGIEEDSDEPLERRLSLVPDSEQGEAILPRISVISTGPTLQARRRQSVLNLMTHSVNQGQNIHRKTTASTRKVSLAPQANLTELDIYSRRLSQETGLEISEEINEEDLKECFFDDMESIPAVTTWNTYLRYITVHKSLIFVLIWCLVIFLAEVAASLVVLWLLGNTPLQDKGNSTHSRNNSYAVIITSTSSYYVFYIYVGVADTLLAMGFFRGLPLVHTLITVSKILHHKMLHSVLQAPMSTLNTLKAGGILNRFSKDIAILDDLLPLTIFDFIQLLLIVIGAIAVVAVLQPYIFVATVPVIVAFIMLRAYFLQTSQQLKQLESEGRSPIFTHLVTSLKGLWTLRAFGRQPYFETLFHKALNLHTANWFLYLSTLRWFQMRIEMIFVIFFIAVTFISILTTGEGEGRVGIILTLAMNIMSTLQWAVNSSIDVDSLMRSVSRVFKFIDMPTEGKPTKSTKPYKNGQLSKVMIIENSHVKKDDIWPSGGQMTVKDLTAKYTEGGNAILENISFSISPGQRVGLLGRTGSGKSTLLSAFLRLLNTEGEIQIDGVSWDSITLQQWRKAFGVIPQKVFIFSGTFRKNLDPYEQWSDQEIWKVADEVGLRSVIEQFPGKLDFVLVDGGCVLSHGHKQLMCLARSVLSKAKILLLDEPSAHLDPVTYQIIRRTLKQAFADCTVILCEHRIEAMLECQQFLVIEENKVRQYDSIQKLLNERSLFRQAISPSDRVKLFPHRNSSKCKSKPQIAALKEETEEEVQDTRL

SMILES	EC50 [µM]	Emax [%]
COc1ccc(C(=O)N2CCN(C(C)c3nc4ccc(Cl)cc4c(=O)n3C)CC2)cc1OC (centres unmarked) [compound 77]	25 to 60	< 25
COc1ccc(NC(=O)N2CCN(C(C)c3nc4ccccc4c(=O)n3C)CC2)c(OC)c1 (centres unmarked) [compound 8]	25 to 60	< 25
CCCn1c(C(C)N2CCN(C(=O)Nc3ccc(OC)cc3OC)CC2)nc2ccccc2c1=O (centres unmarked) [compound 25]	25 to 60	< 25
CC(=O)Nc1nc(C)c(S(=O)(=O)N2CCN(C(C)c3nc4ccccc4c(=O)n3C)CC2)s1 (centres unmarked) [compound 243]	25 to 60	25 to 100
COc1nc(C(C)N2CCN(S(=O)(=O)c3ccc(Br)cc3)CC2)nc2ccccc12 (centres unmarked) [compound 227]	25 to 60	25 to 100
CC(c1nc2ccccc2c(=O)n1C)N1CCN(S(=O)(=O)c2ccc(CC#N)cc2)CC1 (centres unmarked) [compound 330]	25 to 60	25 to 100
CC(NCCNS(=O)(=O)c1ccc(Cl)cc1)c1nc2ccccc2c(=O)n1C (centres unmarked) [compound 168]	25 to 60	< 25
COc1ccc(S(=O)(=O)N2CCN(C(C)c3nc(OC4CCC(O)CC4)c4ccccc4n3)CC2)cc1 (centres unmarked) [compound 343]	25 to 60	25 to 100
CCNc1nc(C(C)N2CCN(S(=O)(=O)c3ccc(Br)cc3)CC2)nc2ccccc12 (centres unmarked) [compound 221]	25 to 60	25 to 100
C=Cc1ccc(S(=O)(=O)N2CCN(C(C)c3nc4ccccc4c(=O)n3C)CC2)cc1 (centres unmarked) [compound 244]	25 to 60	25 to 100

Second part, the compound after the results:

EC50 [µM]	Emax [%]	SMILES
10 to 25	< 25	CC(c1nc2cc(Cl)ccc2c(=O)n1C)N1CCN(S(=O)(=O)c2ccc(S(C)(=O)=O)cc2)CC1 (centres unmarked) [compound 110]
25 to 60	< 25	CSc1nccc(-c2ccc(S(=O)(=O)N3CCN(C(C)c4nc5ccccc5c(=O)n4C)CC3)s2)n1 (centres unmarked) [compound 277]
10 to 25	25 to 100	CC(c1nc2ccccc2c(=O)n1C)N1CCN(S(=O)(=O)c2ccc(OC(F)(F)F)cc2)CC1 (centres unmarked) [compound 50]
10 to 25	25 to 100	CC(c1nc2ccc(Cl)cc2c(=O)n1C)N1CCN(C(=O)c2ccc(Br)cc2)CC1 (centres unmarked) [compound 17]
25 to 60	< 25	COc1ccc(S(=O)(=O)N2CCN(C(C)c3nc(N4CCC[C@@H]4C(=O)O)c4ccccc4n3)CC2)cc1 (some centres unmarked) [compound 324]
25 to 60	25 to 100	Cc1cccc(NC(=O)N2CCN(C(C)c3nc4ccc(Cl)cc4c(=O)n3C)CC2C)c1 (centres unmarked) [compound 1]
10 to 25	25 to 100	CCNc1nc(C(C)N2CCN(S(=O)(=O)c3ccc(Cl)cc3)CC2)nc2ccccc12 (centres unmarked) [compound 234]
< 10	25 to 100	COc1ccc(S(=O)(=O)N2CCN(C(C)c3nc(C(C)C)c4ccccc4n3)CC2)cc1 (centres unmarked) [compound 310]
10 to 25	< 25	CC(c1nc2ccc(Cl)cc2c(=O)n1C)N1CCN(C(=O)c2ccc(C(F)(F)F)cc2)CC1 (centres unmarked) [compound 78]
10 to 25	< 25	Cc1ccc(C(=O)N2CCN(C(C)c3cc4ccc(Cl)cc4c(=O)n3C)CC2)cc1 (centres unmarked) [compound 58]
10 to 25	< 25	CC(c1nc2ccc(Cl)cc2c(=O)n1C)N1CCN(S(=O)(=O)Cc2ccccc2)CC1 (centres unmarked) [compound 86]
25 to 60	< 25	CC(c1nc2ccccc2c(=O)n1C)N1CCN(S(=O)(=O)c2cc(S(=O)(=O)c3ccccc3)cs2)CC1 (centres unmarked) [compound 263]
< 10	> 100	COc1ccc(S(=O)(=O)N2CCN(C(C)c3nc(N4CCN(c5ccccc5)CC4)c4ccccc4n3)CC2)cc1 (centres unmarked) [compound 390]
< 10	> 100	C[C@H](c1nc(N2CCCCC2)c2ccccc2n1)N1CCN(S(=O)(=O)c2ccc(Cl)cc2)CC1 [compound 379]
10 to 25	> 100	CC(c1nc2ccccc2c(=O)n1C)N1CCN(S(=O)(=O)c2ccc(Cl)cc2)CC1 (centres unmarked) [compound 9]
